Measurements: US20110213236A1, “THERAPEUTIC COMPOSITIONS, DEVICES AND METHODS FOR OBSERVING TREATED TISSUES” (IMMUNOPATH PROFILE, INC., priority 2008, published 2011)

How the values were obtained:
Assay type in all cases: in vivo, human
gout = experiment: Gout; details: locally added to the transdermal cream
Description: This acute musculoskeletal strain and severe foot pain occurred when getting out of bed, and standing with bare feet. The strain was associated with extensive standing and walking without their customary shoe arch support. […] The use of Advil liquid filled capsules solubilized ibuprofen locally added to the transdermal cream expedited the reversal of acute gout after one-two applications.
When used transdermally on all these examples, the permeability was increased with the subsequent use of the heating pad, but in the case of the Gout, it was used at its mildest level. […] In the treatment of Gout, the patient responded first to the Resveratrol enriched transdermal cream as in Example Group 2 locally applied used 3 times daily, with Garlic powder by Oregon Wild Harvest, specially processed, air-dried, and ground with a water-cooled grinding system to avoid generating heat, was sprinkled onto the wound as an anti-fungal agent derived from the cloves and root system of the Garlic plant and serving as a GRAS item to impart the innate immunity found in the defensin adaptogen of the plant, with good success.

atrial fibrillation = experiment: Atrial fibrillation patient treated with Cardizem and subject composition
Description: We see the same effect in the remarkable drug, Levodopa, in the treatment of Parkinsonism with the side effects of stroke, heart attack, and substantia nigra, basal ganglia damage. […] The total studies were almost 30,000 in number and BIOMARKERS TISSUE […] AND […] TARGETS FOR CARDIAC […] Cardiac arrhythmia nutritional deficiencies, 496 studies compared with:
Vitamin B1 was cited as the most critical of preventing and reversing arrhythmia in starvation studies. Omega-3 fish oil was shown pre-clinically to be effective in the animal heart studies: after it was digested from and enzymatic release from glycerol was not only shown by Leaf in vitro in the isolated beating animal heart muscle to prevent toxicity effects of toxic chemicals. On our chemical moiety orientated spreadsheet where we listed more than 1,400 studies documenting the efficacy of magnesium.
With complete components listed in the spreadsheet of indicated diseases, giving a more complete list, provides by maximizing and optimizing efficacy and safety in the foregoing subject composition free of undesirable effects not only for the treatment of disease but for averting these undesirable side-effects. […]

[1] = system: degenerative osteoarthritis of the knee; experiment: Degenerative osteoarthritis of the knee and pulled ligament, lotion; details: 600 mg
Description: A dentist was diagnosed with degenerative osteoarthritis of the left knee in 2001, by an orthopedic surgeon at the Henry Ford Health System in Farmington Hillsi Mich. At that time, they were […], and was working 55 hours per week at their dental practice. The orthopedic surgeon advised a complete knee replacement since the joint space was minimal as per the M.Rt. The meniscus had worn away from athletics and job requirements. The option was chosen of using occasional steroid injections in times of severe inflammation along with the daily use of Celebrex until they could no longer function, rather than have such an irreversible traumatic operation, at their age. The doctor agreed. Their quality of life was affected as was their comfort during work.
A few years later, the right knee ligaments were starting to weaken resulting in much pain and dysfunction, the now patient's gait was hobbled to a severe limp.
A composition of the subject invention in lotion form was applied twice daily after warming the area with a moist-heat heating pad for a few minutes.
Plans for a knee replacement were put on hold. The patient subsequently suffered a ligament pulled ligament in the groin. The ligament was also treated with the same composition In three days the pain was gone.

CC(C)Cc1ccc(C(C)C(=O)O)cc1 (stereo not drawn) [Advil, ibuprofen]
applications until reversal of acute gout (gout): one-two

COc1ccc([C@@H]2Sc3ccccc3N(CCN(C)C)C(=O)[C@@H]2OC(C)=O)cc1 [Cardizem]
side effects on the second dose (atrial fibrillation): pain, inability to walk, and weakness

CC(C)Cc1ccc(C(C)C(=O)O)cc1 (stereo not drawn) [Ibuprofen]
effect on knee pain and dysfunction [1]: helpful but not therapeutic
